In patent US20080009418A1, “Selective Inhibitors” (Alchemia LTD., priority 2004, published 2008):

What was measured:
[1] = molecular target: T1, Human Melanocortin (MC4) (Homo sapiens, UniProt P32245); experiment: Radioligand binding, human melanocortin MC4 membranes, FlashPlate, [125I]-NDP-αMSH; conditions: compound at 10 μM, [125I]-NDP-αMSH; for A4: inhibition of radioligand binding: FlashPlate
T1 construct: purchased Perkin Elmer Biosignal
How it was run: (§1)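 Cloned human receptor membranes were coated onto FlashPlate wells and incubated with radioligand and compound (added from a 0.5 mM DMSO daughter plate) for 1 hour at room temperature in the dark. Scintillation counting gave percent inhibition, with DMSO defining total and reference ligand defining non-specific binding.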

[2] = molecular target: T2, Human Melanocortin (MC3) (Homo sapiens, UniProt P41968); experiment: Radioligand binding, human melanocortin MC3 membranes, FlashPlate, [125I]-NDP-αMSH; conditions: compound at 10 μM, [125I]-NDP-αMSH; for A3: inhibition of radioligand binding: FlashPlate
T2 construct: purchased Perkin Elmer Biosignal
How it was run: as §1

[3] = molecular target: T3, Mouse urotensin (mUR2) (Mus musculus, UniProt Q8VIH9); experiment: Radioligand binding, mouse urotensin mUR2 membranes, FlashPlate, [125I]-Urotensin II; conditions: compound at 10 μM, [125I]-Urotensin II; for A11: inhibition of radioligand binding: FlashPlate
T3 construct: purchased Perkin Elmer Biosignal
T3 sequence (Q8VIH9 1-385): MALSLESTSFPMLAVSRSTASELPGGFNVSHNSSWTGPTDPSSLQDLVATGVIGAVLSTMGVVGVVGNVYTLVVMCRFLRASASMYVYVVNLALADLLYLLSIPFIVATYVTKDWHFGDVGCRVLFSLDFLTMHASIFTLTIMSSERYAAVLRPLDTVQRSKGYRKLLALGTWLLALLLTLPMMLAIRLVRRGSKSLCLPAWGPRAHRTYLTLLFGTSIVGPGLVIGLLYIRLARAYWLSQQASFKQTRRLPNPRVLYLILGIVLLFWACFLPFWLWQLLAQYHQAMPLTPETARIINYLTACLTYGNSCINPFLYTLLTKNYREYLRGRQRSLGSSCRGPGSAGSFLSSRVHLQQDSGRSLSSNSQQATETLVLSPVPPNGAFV
How it was run: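 Cloned mouse urotensin (mUR2) receptor membranes from Perkin Elmer Biosignal were immobilized in FlashPlate microplates using a proprietary coating. Each well got 19.5 μl buffer, then 0.5 μl of DMSO, reference ligand, or compound. Adding 5 μl of [125I]-Urotensin II, diluted to 5× final concentration in binding buffer, started binding. Plates were sealed with TopSeal-A and incubated 1 hour at room temperature in the dark. Wells were counted for 30 seconds each on a TopCount after a 60-second delay, and percentage inhibition was calculated.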

[4] = molecular target: T4, Human μ-opioid (MOP) (Homo sapiens, UniProt P35372); experiment: Radioligand binding, human μ-opioid (MOP) membranes, FlashPlate, [3H]-Naloxone; conditions: compound at 10 μM, [3H]-Naloxone; for A7: inhibition of radioligand binding: FlashPlate
T4 construct: purchased Perkin Elmer Biosignal
How it was run: as §1

[5] = molecular target: T5, Human melanocortin (MC5) (Homo sapiens, UniProt P33032); experiment: Radioligand binding, human melanocortin MC5 membranes, FlashPlate, [125I]-NDP-αMSH; conditions: compound at 10 μM, [125I]-NDP-αMSH; for A5: inhibition of radioligand binding: FlashPlate
T5 construct: purchased Perkin Elmer Biosignal
How it was run: as §1

[6] = molecular target: T6, Human opioid (ORL1) (Homo sapiens, UniProt P41146); experiment: Radioligand binding, human opioid ORL1 membranes, FlashPlate, [125I]-Nociceptin; conditions: compound at 10 μM, [125I]-Nociceptin; for A10: inhibition of radioligand binding: FlashPlate
T6 construct: purchased Perkin Elmer Biosignal
How it was run: as §1

[7] = molecular target: T7, Human δ-opioid (DOP) (Homo sapiens, UniProt P41143); experiment: Radioligand binding, human δ-opioid (DOP) membranes, FlashPlate, [3H]-Bremazocine; conditions: compound at 10 μM, [3H]-Bremazocine; for A1: inhibition of radioligand binding: FlashPlate
T7 construct: purchased Perkin Elmer Biosignal
How it was run: as §1

[8] = molecular target: T8, Human melanin-concentrating hormone (MCH1) (Homo sapiens, UniProt Q99705); experiment: Radioligand binding, human melanin-concentrating hormone MCH1 membranes, FlashPlate, [125I]-S36057; conditions: compound at 10 μM; for A6: inhibition of radioligand binding: [125I]-S36057, FlashPlate
T8 construct: purchased Perkin Elmer Biosignal
How it was run: as §1

[9] = molecular target: T9, Human neurokinin (NK1) (Homo sapiens, UniProt P25103); experiment: Radioligand binding, human neurokinin NK1 membranes, filtration, [125I]-Substance P; conditions: compound at 10 μM, [125I]-Substance P; for A8: inhibition of radioligand binding: filtration
T9 construct: purchased Perkin Elmer Biosignal
How it was run: (§2)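 Membranes from cloned human receptors were incubated with compound and radioligand for 1 hour at room temperature. Bound ligand was collected on 0.3% PEI-soaked filters, washed with cold 50 mM Tris-HCl pH 7.4, and counted by scintillation. Percent inhibition was computed against DMSO totals and reference-ligand nonspecific wells.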

[10] = molecular target: T10, Human κ-Opioid (KOP) (Homo sapiens, UniProt P41145); experiment: Radioligand binding, human κ-opioid (KOP) membranes, filtration, [3H]-Diprenorphine; conditions: compound at 10 μM, [3H]-Diprenorphine; for A2: inhibition of radioligand binding: filtration
T10 construct: purchased Perkin Elmer Biosignal
How it was run: as §2

[11] = molecular target: T11, Human neuropeptide Y (NPY-Y1) (Homo sapiens, UniProt P25929); experiment: Radioligand binding, human neuropeptide Y NPY-Y1 membranes, FlashPlate, [125I]-PYY; conditions: compound at 10 μM, [125I]-PYY; for A9: inhibition of radioligand binding: FlashPlate
T11 construct: purchased Perkin Elmer Biosignal
T11 sequence (P25929 1-384): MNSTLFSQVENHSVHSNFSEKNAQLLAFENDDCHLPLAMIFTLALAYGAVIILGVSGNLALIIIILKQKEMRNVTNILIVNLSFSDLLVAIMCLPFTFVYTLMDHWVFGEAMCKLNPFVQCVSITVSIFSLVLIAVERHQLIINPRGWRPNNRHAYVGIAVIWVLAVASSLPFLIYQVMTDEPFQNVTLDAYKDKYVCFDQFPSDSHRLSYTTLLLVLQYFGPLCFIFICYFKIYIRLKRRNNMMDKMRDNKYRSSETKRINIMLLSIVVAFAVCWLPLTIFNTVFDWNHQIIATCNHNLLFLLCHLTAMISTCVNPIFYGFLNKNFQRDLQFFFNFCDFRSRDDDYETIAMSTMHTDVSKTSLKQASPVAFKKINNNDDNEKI
How it was run: as §1

T6 sequence (P41146 whole entry): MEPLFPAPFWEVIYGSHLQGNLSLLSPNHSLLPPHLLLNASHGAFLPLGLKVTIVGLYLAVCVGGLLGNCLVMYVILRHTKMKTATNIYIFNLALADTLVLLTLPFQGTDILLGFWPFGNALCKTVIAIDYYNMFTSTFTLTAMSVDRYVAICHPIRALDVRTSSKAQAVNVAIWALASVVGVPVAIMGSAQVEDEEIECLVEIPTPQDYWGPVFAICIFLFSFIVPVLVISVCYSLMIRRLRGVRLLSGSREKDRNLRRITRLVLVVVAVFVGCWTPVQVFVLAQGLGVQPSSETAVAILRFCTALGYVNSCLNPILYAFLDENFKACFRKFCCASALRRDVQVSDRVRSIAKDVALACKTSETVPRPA
T10 sequence (P41145 whole entry): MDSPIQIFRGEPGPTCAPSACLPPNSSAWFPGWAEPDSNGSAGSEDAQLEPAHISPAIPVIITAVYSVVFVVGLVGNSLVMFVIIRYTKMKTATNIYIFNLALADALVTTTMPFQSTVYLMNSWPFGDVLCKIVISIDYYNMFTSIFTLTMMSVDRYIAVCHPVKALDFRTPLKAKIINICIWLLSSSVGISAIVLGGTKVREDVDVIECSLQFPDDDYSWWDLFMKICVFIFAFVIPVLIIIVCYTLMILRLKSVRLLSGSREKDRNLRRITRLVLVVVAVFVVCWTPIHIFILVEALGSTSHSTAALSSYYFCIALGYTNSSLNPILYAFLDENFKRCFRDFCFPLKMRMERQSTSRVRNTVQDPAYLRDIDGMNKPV
T9 sequence (P25103 whole entry): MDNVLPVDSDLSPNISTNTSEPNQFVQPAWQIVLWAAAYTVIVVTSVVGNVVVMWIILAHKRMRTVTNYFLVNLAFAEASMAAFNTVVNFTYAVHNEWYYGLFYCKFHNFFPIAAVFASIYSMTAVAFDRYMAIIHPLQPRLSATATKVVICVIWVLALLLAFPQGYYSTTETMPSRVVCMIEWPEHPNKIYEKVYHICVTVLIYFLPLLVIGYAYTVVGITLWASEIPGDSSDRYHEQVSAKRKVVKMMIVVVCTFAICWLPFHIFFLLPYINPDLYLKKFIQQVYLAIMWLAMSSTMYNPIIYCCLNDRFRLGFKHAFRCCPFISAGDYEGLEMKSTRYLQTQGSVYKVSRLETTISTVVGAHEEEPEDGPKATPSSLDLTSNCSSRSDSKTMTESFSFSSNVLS
T7 sequence (P41143 whole entry): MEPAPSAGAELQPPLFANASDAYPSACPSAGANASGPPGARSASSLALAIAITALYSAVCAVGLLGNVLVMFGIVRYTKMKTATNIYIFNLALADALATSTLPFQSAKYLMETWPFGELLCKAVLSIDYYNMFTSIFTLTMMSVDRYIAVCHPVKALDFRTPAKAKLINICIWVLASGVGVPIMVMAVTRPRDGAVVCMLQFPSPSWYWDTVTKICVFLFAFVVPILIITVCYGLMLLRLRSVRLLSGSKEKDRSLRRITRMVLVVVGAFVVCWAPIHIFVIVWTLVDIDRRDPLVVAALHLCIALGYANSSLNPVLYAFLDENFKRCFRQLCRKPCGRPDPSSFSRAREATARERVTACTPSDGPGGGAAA
T1 sequence (P32245 whole entry): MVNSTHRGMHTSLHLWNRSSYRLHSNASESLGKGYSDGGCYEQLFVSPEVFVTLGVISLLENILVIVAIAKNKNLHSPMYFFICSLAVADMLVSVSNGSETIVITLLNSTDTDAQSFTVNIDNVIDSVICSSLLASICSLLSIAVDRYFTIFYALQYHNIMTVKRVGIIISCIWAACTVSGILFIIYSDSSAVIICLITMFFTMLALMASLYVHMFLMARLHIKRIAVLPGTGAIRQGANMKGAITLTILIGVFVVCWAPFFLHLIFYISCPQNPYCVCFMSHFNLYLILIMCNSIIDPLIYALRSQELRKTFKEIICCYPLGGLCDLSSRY
T8 sequence (Q99705 whole entry): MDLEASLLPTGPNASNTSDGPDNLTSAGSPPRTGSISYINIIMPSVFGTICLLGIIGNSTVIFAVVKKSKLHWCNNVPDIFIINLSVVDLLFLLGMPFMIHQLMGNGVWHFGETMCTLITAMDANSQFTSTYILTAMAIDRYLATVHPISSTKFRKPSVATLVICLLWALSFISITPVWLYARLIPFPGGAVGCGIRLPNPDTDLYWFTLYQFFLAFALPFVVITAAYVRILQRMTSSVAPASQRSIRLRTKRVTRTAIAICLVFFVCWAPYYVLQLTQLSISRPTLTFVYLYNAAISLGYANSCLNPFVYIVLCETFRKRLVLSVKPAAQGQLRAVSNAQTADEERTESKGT
T5 sequence (P33032 whole entry): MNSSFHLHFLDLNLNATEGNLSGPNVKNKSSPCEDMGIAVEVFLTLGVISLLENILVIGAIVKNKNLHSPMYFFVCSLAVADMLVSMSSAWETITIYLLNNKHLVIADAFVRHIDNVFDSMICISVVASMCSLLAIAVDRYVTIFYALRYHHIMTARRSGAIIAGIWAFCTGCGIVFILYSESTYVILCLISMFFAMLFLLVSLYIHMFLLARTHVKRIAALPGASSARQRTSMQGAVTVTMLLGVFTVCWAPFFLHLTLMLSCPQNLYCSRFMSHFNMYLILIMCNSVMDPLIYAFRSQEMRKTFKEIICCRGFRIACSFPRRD
T2 sequence (P41968 whole entry): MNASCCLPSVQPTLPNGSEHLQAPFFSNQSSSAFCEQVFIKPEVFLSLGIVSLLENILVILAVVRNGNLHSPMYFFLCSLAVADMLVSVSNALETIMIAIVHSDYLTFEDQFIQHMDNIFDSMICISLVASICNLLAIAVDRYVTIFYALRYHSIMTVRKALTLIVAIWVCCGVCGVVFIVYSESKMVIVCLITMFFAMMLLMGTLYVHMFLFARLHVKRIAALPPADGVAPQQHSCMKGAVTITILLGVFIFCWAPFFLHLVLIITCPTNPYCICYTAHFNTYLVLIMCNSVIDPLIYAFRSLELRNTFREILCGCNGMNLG
T4 sequence (P35372 whole entry): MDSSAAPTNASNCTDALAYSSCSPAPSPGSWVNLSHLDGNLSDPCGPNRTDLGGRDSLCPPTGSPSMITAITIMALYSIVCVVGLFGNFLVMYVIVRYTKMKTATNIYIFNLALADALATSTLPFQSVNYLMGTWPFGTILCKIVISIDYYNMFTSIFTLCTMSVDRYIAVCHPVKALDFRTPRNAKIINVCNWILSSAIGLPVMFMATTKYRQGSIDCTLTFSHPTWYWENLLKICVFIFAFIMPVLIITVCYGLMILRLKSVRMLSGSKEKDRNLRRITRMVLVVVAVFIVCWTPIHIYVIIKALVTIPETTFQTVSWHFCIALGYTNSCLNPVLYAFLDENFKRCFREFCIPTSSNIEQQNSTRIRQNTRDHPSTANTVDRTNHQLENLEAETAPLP

SMILES	A4: inhibition of radioligand binding [1]	A3: inhibition of radioligand binding [2]	A11: inhibition of radioligand binding [3]	A7: inhibition of radioligand binding [4]	A5: inhibition of radioligand binding [5]	A10: inhibition of radioligand binding [6]	A1: inhibition of radioligand binding [7]	A6: inhibition of radioligand binding [8]	A8: inhibition of radioligand binding [9]	A2: inhibition of radioligand binding [10]	A9: inhibition of radioligand binding [11]	also measured
NCC1CCC(C(=O)NC2O[C@H](CO)[C@@H](O)[C@H](OCc3ccc(Cl)cc3)[C@H]2NC(=O)c2ccccc2)CC1 (stereo partly drawn) [compound 361]	–	–	–	–	–	–	–	–	–	–	–	A4: inhibition of radioligand binding, human melanocortin (MC4) [1]: + (“+” indicates greater than 50% inhibition at 10 μM); A3: inhibition of radioligand binding, human melanocortin (MC3) [2]: − (“−” indicates less than 50% inhibition at 10 μM); A11: inhibition of radioligand binding, mouse urotensin (mUR2) [3]: − (“−” indicates less than 50% inhibition at 10 μM); A7: inhibition of radioligand binding, human μ-opioid (MOP) [4]: − (“−” indicates less than 50% inhibition at 10 μM); A5: inhibition of radioligand binding, human melanocortin (MC5) [5]: − (“−” indicates less than 50% inhibition at 10 μM); A10: inhibition of radioligand binding, human opioid (ORL1) [6]: − (“−” indicates less than 50% inhibition at 10 μM); A1: inhibition of radioligand binding, human δ-opioid (DOP) [7]: − (“−” indicates less than 50% inhibition at 10 μM); A6: inhibition of radioligand binding, human melanin-concentrating hormone (MCH1) ([8]; [125I]-S36057): − (“−” indicates less than 50% inhibition at 10 μM); A8: inhibition of radioligand binding, human neurokinin (NK1) [9]: − (“−” indicates less than 50% inhibition at 10 μM); A2: inhibition of radioligand binding, human κ-opioid (KOP) [10]: − (“−” indicates less than 50% inhibition at 10 μM); A9: inhibition of radioligand binding, human neuropeptide Y (NPY-Y1) [11]: − (“−” indicates less than 50% inhibition at 10 μM)
COCC1OC(OCc2ccc(Cl)cc2)C(NC(=O)CCCN)C(OCc2ccc(Cl)cc2)C1O (stereo not drawn) [compound 203]	− (“−” indicates less than 50% inhibition at 10 μM)	− (“−” indicates less than 50% inhibition at 10 μM)	− (“−” indicates less than 50% inhibition at 10 μM)	− (“−” indicates less than 50% inhibition at 10 μM)	+ (“+” indicates greater than 50% inhibition at 10 μM)	− (“−” indicates less than 50% inhibition at 10 μM)	− (“−” indicates less than 50% inhibition at 10 μM)	− (“−” indicates less than 50% inhibition at 10 μM)	+ (“+” indicates greater than 50% inhibition at 10 μM)	− (“−” indicates less than 50% inhibition at 10 μM)	− (“−” indicates less than 50% inhibition at 10 μM)	–
COCC1OC(OCc2ccc3ccccc3c2)C(NC(=O)CN)C(OCc2ccc3ccccc3c2)C1O (stereo not drawn) [compound 246]	− (“−” indicates less than 50% inhibition at 10 μM)	− (“−” indicates less than 50% inhibition at 10 μM)	− (“−” indicates less than 50% inhibition at 10 μM)	− (“−” indicates less than 50% inhibition at 10 μM)	− (“−” indicates less than 50% inhibition at 10 μM)	− (“−” indicates less than 50% inhibition at 10 μM)	− (“−” indicates less than 50% inhibition at 10 μM)	− (“−” indicates less than 50% inhibition at 10 μM)	+ (“+” indicates greater than 50% inhibition at 10 μM)	− (“−” indicates less than 50% inhibition at 10 μM)	− (“−” indicates less than 50% inhibition at 10 μM)	–
